According to the supplement of paper PMC8253809:

Columns and labels:
[1] = tested on: DIPGX37 (H3.3 K27M diffuse intrinsic pontine glioma line); test: maximal growth inhibition (yFin) relative to DMSO / staurosporine; higher = more efficacious
In short: (§1)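 Patient-derived pHGG/DIPG cell lines and astrocyte controls were plated in 384-well plates coated with 1% Geltrex and dosed by pin tool with a 10-point threefold dilution series (mean top concentration 35 μM), in triplicate. Cells were exposed for 7 days (3 days for iAstro) at 37 °C and 5% CO2. CellTiter-Glo luminescence was log2-transformed, normalised per plate to % activity between negative (solvent) and positive control wells, and pooled. EC50 and maximal response (yFin) were taken from whichever three- or four-parameter log-logistic fit had the lowest AICc.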

[2] = tested on: DIPGX7 (H3.3 K27M diffuse intrinsic pontine glioma line); test: as above
In short: as §1

[3] = tested on: SUDIPGXXI (diffuse intrinsic pontine glioma line); test: as above
In short: as §1

[4] = tested on: iAstro (astrocyte control); test: as above
In short: as §1

[5] = tested on: DIPGX29 (H3.3 K27M diffuse intrinsic pontine glioma line); test: as above
In short: as §1

[6] = tested on: HGGX42 (H3.3 G34R paediatric high-grade glioma line); test: as above
In short: as §1

[7] = tested on: DIPGX37; test: EC50 (inflection of fitted growth-inhibition curve) (log10 M)
In short: as §1

[8] = tested on: DIPGX7; test: as above
In short: as §1

[9] = tested on: SUDIPGXXI; test: as above
In short: as §1

[10] = tested on: iAstro; test: as above
In short: as §1

[11] = tested on: DIPGX29; test: as above
In short: as §1

[12] = tested on: HGGX42; test: as above
In short: as §1

[13] = tested on: SUDIPGIV (diffuse intrinsic pontine glioma line); test: area under dose-response curve of % growth inhibition (log2 RLU vs DMSO / staurosporine), 1e-11 to 1e-4 M (% x log10 M); higher = more growth inhibition
In short: (§2)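 Patient-derived pHGG/DIPG cell lines and astrocyte controls were grown on 1% Geltrex-coated 384-well plates and exposed to a 10-point threefold dilution series (mean top concentration 35 μM), in triplicate. Exposure was 7 days (iAstro 3 days) at 37 °C, 5% CO2. CellTiter-Glo luminescence was log2-transformed and normalised per plate to % activity between solvent and positive controls. Area under the curve was taken by trapezoid rule from the fitted log-logistic curve, or from a smoothing spline when the sigmoid fit failed.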

[14] = tested on: SUDIPGVI (diffuse intrinsic pontine glioma line); test: as above
In short: as §2

[15] = tested on: SUDIPGXIII (diffuse intrinsic pontine glioma line); test: as above
In short: as §2

[16] = tested on: SUDIPGXIX (diffuse intrinsic pontine glioma line); test: as above
In short: as §2

[17] = tested on: HGGX2 (paediatric high-grade glioma line); test: as above
In short: as §2

[18] = tested on: DIPGX37; test: as above
In short: as §2

[19] = tested on: DIPGX7; test: as above
In short: as §2

[20] = tested on: DIPGX9 (diffuse intrinsic pontine glioma line); test: as above
In short: as §2

[21] = tested on: HABS (astrocyte control); test: as above
In short: as §2

[22] = tested on: SUDIPGXVII (diffuse intrinsic pontine glioma line); test: as above
In short: as §2

[23] = tested on: HGGX39 (paediatric high-grade glioma line); test: as above
In short: as §2

[24] = tested on: SUDIPGXXI; test: as above
In short: as §2

[25] = tested on: iAstro; test: as above
In short: as §2

[26] = tested on: HGGX6 (H3.3 G34R paediatric high-grade glioma line); test: as above
In short: as §2

[27] = tested on: DIPGX29; test: as above
In short: as §2

[28] = tested on: HGGX42; test: as above
In short: as §2

[29] = tested on: SUDIPGIV; test: maximal growth inhibition (yFin) relative to DMSO / staurosporine; higher = more efficacious
In short: as §1

[30] = tested on: SUDIPGXIX; test: as above
In short: as §1

[31] = tested on: HGGX2; test: as above
In short: as §1

[32] = tested on: DIPGX9; test: as above
In short: as §1

[33] = tested on: HABS; test: as above
In short: as §1

[34] = tested on: SUDIPGXVII; test: as above
In short: as §1

[35] = tested on: HGGX39; test: as above
In short: as §1

[36] = tested on: SUDIPGIV; test: EC50 (inflection of fitted growth-inhibition curve) (log10 M)
In short: as §1

[37] = tested on: SUDIPGXIX; test: as above
In short: as §1

[38] = tested on: HGGX2; test: as above
In short: as §1

[39] = tested on: DIPGX9; test: as above
In short: as §1

[40] = tested on: HABS; test: as above
In short: as §1

[41] = tested on: SUDIPGXVII; test: as above
In short: as §1

[42] = tested on: HGGX39; test: as above
In short: as §1

[43] = tested on: HGGX6; test: maximal growth inhibition (yFin) relative to DMSO / staurosporine; higher = more efficacious
In short: as §1

[44] = tested on: HGGX6; test: EC50 (inflection of fitted growth-inhibition curve) (log10 M)
In short: as §1

Row | Compound | maximal growth inhibition [1] | maximal growth inhibition [3] | maximal growth inhibition [4] | EC50 (log10 M) [9] | area under dose-response curve [13] | area under dose-response curve [14] | area under dose-response curve [15] | area under dose-response curve [16] | area under dose-response curve [17] | area under dose-response curve [18] | area under dose-response curve [19] | area under dose-response curve [20] | area under dose-response curve [21] | area under dose-response curve [22] | area under dose-response curve [23] | area under dose-response curve [24] | area under dose-response curve [25] | area under dose-response curve [26] | area under dose-response curve [27] | area under dose-response curve [28] | further results
1 | Fc1ccc(N2CCN(CCC3OCCc4ccccc43)CC2)cc1 (centres undefined) | 34.9% | 57.5% | 23.3% | -5.02 | 15.7 | 12.8 | 13.4 | 0 | 15.4 | 33.4 | 37.3 | 13.4 | 1.16 | 8.36 | 18.1 | 87.1 | 24 | 14.9 | 27.2 | 37.8 | maximal growth inhibition [2]: 40.7%; maximal growth inhibition [5]: 26.6%; maximal growth inhibition [6]: 38.6%; EC50 (log10 M) [7]: -4.97; EC50 (log10 M) [8]: -4.91; EC50 (log10 M) [10]: -5.03; EC50 (log10 M) [11]: -5.02; EC50 (log10 M) [12]: -4.98
2 | O=C1NC(=O)C(c2cnc3ccccn23)=C1c1cn2c3c(cc(F)cc13)CN(C(=O)N1CCCCC1)CC2 | 52.1% | 112% | 45.8% | -6.42 | 300 | 6.26 | 6.37 | 37 | 27 | 24.1 | 6.78 | 64 | 199 | 16.9 | 70.9 | 277 | 66.3 | 30.8 | 42 | 72.1 | maximal growth inhibition [29]: 69.8%; maximal growth inhibition [30]: 24.1%; maximal growth inhibition [31]: 40.7%; maximal growth inhibition [32]: 97.2%; maximal growth inhibition [33]: 50.7%; maximal growth inhibition [34]: 22.3%; maximal growth inhibition [35]: 35.2%; maximal growth inhibition [5]: 49.3%; maximal growth inhibition [6]: 60.7%; EC50 (log10 M) [36]: -8.3; EC50 (log10 M) [37]: -5.7; EC50 (log10 M) [38]: -4.66; EC50 (log10 M) [7]: -4.48; EC50 (log10 M) [39]: -4.66; EC50 (log10 M) [40]: -7.93; EC50 (log10 M) [41]: -4.97; EC50 (log10 M) [42]: -6.42; EC50 (log10 M) [10]: -5.34; EC50 (log10 M) [11]: -4.49; EC50 (log10 M) [12]: -5.13
3 | CC(C)N(CCCNC(=O)Nc1ccc(C(C)(C)C)cc1)C[C@H]1O[C@@H](n2cc(Br)c3c(N)ncnc32)[C@H](O)[C@@H]1O [SGC0946] | 65.1% | 107% | 25.3% | -4.77 | 11.6 | 20 | 40.5 | 57.8 | 58.5 | 56.4 | 54 | 24.1 | 8.16 | 27.7 | 14.8 | 82.6 | 21.5 | 33.2 | 58.4 | 66.7 | maximal growth inhibition [30]: 107%; maximal growth inhibition [31]: 100%; maximal growth inhibition [2]: 35.5%; maximal growth inhibition [32]: 30.4%; maximal growth inhibition [43]: 43%; maximal growth inhibition [5]: 100%; maximal growth inhibition [6]: 102%; EC50 (log10 M) [37]: -4.54; EC50 (log10 M) [38]: -4.58; EC50 (log10 M) [7]: -4.52; EC50 (log10 M) [8]: -4.86; EC50 (log10 M) [39]: -4.79; EC50 (log10 M) [10]: -4.87; EC50 (log10 M) [44]: -4.77; EC50 (log10 M) [11]: -4.49; EC50 (log10 M) [12]: -4.53
4 | CC1=C(/C=C/C(C)=C/C=C/C(C)=C/C(=O)O)C(C)(C)CCC1 [TRETINON] |  | 94.3% |  | -7.13 | 44.1 | 22 | 0 | 14.9 | 71.1 | 46.7 | 16.1 | 97.5 | 0 | 19.9 | 42.5 | 296 | 14.6 | 27.5 | 40.4 | 28.5 | maximal growth inhibition [31]: 24.3%; EC50 (log10 M) [38]: -6.92
